Experiment [1] relates to bacteria that are plant-associated. Put plainly: Lag phase shortening in plant-associated bacteria. The class given is cell-based. An excerpt:
To explore whether lag phase shortening is a general mechanism among bacteria, the inventors tested the effect of methylated compounds in bacteria with different lifestyles. […] Since methylated compounds are a hallmark of photosynthesizing organisms, the inventors next tested a variety of bacteria that are plant-associated. […] Finally, to establish the prevalence of lag phase shortening among bacteria, the inventors tested the model bacterium E. coli. This bacterium is not commonly found associated with photosynthesizing organisms, and thus, is unlikely to respond to algal metabolites. […] The synchrony between specific compounds and different groups of bacteria may reflect the natural context […].

In experiment [2] the test system is methionine synthesis activity in P. inhibens protein crude extracts. Briefly: Methionine synthesis activity assay with P. inhibens protein crude extracts. The class given is biochemical, Phaeobacter inhibens. The settings on record: crude extracts of stationary bacterial cells treated with 1 μM DMSP for 2 hours; LC/MS. As for the experimental part:
The bacterium P. inhibens DSM 17395 was cultivated in 100 mL ASW with 5.5 mM glucose until reaching stationary phase, and then treated with 1 μM DMSP for 2 hours. Cell pellets of control and treated bacteria were harvested by 10 min centrifugation (15,000 rpm) at 4° C. The pellets were washed with buffer A (50 mM Hepes-KOH PH 7.5), resuspended in buffer B (50 mM Hepes-KOH PH 7.5, 10 mM β-mercaptoethanol, 1 mM EDTA) and disrupted by 5 min bead beating at 30 s^−1 with 300 mg silica beads (Mixer Mill MM-400, Retsch, Haan, Germany). The supernatant was collected by 5 min centrifugation (15,000 rpm). To measure the activity of enzymatic DMSP demethylation and methionine formation, 0.5 mL crude extract (1 mg/mL protein; determined with Bio-Rad protein assay, Hercules, California, U.S.) were incubated for 1 h with 1 mL Buffer C (60 mM PPB, 4.5 mM homocysteine, 4.5 mM DMSP, pH 7.5). The reaction mix was snap frozen in liquid nitrogen, and subsequently analyzed for product formation using LC/MS (FIG. 10).
To further elucidate the fate of methyl groups, the inventors analyzed the transcriptome of DMSP-treated P. inhibens bacteria during the lag phase, and compared it to untreated control cultures. […]

Experiment [3] relates to betaine-homocysteine S-methyltransferase (Bmt). Briefly: Methionine synthesis in vitro assay with purified Bmt. It counts as biochemical, P. inhibens. The settings on record: 200 μM methyl group donor, 2 mM homocysteine, 30° C., 2 h, fluorometric. As for the experimental part: The expression plasmid pET29b encoding the bmt gene with a Strep-tag II peptide sequence fused to the N-terminus was purchased from Twist Biosciences. The methionine synthase gene mmuM from E. coli was PCR-amplified (Phusion High-Fidelity DNA polymerase, Thermo Scientific) and cloned into the pET29b vector using the CPEC technique (Quan J. & Tian J., 2009). Resulting clones were validated by sanger sequencing. E. coli BL21 electrocompetent cells were transformed with […] of the expression vectors, and cells were selected on LB agar plates containing 50 μg/ml kanamycin. Bacteria were grown in Tryptone Yeast extract Glucose (TYG) medium supplemented with 50 μg/ml kanamycin at 37° C. to mid-log phase (OD600 0.7). Then, cultures were induced with 0.2 mM of IPTG for 3 hours at 37° C. Bacteria were harvested by centrifugation (4,000 rpm for 15 min at 4° C.) and cells were resuspended in 20 mL of NP buffer (50 mM NaH2PO4, 300 mM NaCl, pH 8) and 100 μl of 10× Protease inhibitor (Sigma). […] The Protein concentration was determined with the Protein Assay Dye Reagent Concentrate (BioRad) following the manufacturer's instructions. […]
The methionine synthesis in vitro assay was based on the protocol of Ranocha et al., 2000. […] Methionine formation was measured from 20 μl of the in vitro reactions using the Fluorometric Methionine Assay Kit (Sigma; results depicted in FIG. 14). […]

Each structure is given as a SMILES string.

Results on one compound are retold here after patent US20260015574A1, “METHODS FOR SHORTENING LAG PHASE DURATION IN MICROORGANISMS” (YEDA RESEARCH AND DEVELOPMENT CO. LTD., priority 2022, published 2026).

Turning to `C[S+](C)CCC(=O)[O-]` [DMSP, dimethylsulfoniopropionate], in experiment [1], the lag phase shortening result was “to slightly less extent”. For the same compound, the methionine synthesis activity entry in experiment [2] is listed as “elevated”. In experiment [3], the “methionine formation with DMSP as methyl group donor” value is reported as “catalyzes the production of methionine”.
